No end group written: not given here. Acr = acridine on the lysine ε-amine; PEG = not defined here
How the values were obtained:
[1] = test system: DC-SIGN (+) and (−) CHO cells; test: in vitro transfection with glycopeptide DNA polyplexes; type: cell-based, human; conditions: luciferase, 24 hrs
Protocol: DC-SIGN (+) CHO cells (1×10^5) were plated in 6-well plates in triplicate in 1 ml DMEM high glucose supplemented with 7% FBS and 1% MEM non-essential amino acids. After incubation for 24 hrs at 37° C. in 5% CO2, the media was removed, the cells were washed with 1 ml DPBS, replaced with 1 ml DMEM high glucose media supplemented with 2% FBS and 0.3% MEM non-essential amino acids.
Cells were transfected in triplicate for 24 hrs with pGL3 polyplexes (1 μg DNA and 0.6 nmol of glycopeptide in a total volume of 30 μl). The efficiency of glycopeptide DNA polyplex transfection was compared with PEI-DNA transfection performed by combining 1 μg DNA with 1.2 μg of PEI (N:P of 9) in 100 μl of 5 mM Hepes, 270 mM mannitol, pH 7.4. After 24 hrs, cells were washed with 2 ml of DPBS and lysed with 0.5 ml of lysis buffer (25 mM tris chloride, 1 mM EDTA, 8 mM magnesium chloride, 1% Triton X-100, pH 7.8) for 10 min at 4° C. […] The relative light units were determined with 10 sec integration after automatic injection of 100 μl of 0.43 mM D-luciferin. Protein concentrations were measured by a BCA assay with bovine serum albumin as a standard (Smith, P. K., Krohn, R. I., Hermanson, G. T., Mallia, A. K., Gartner, F. H., Provenzano, M. D., Fujimoto, E. K., Goeke, N. M., Olson, B. J., and Klenk, D. C. (1985) Measurement of protein using bicinchoninic acid. Anal Biochem 150, 76-85). […]

Mice = test: IM-EP of Man9-(Acr-Lys)6 DNA in mice; type: in vivo; conditions: intramuscular electroporation, 1 μg DNA
Protocol: (§1) We tested Man9-N-glycan polyacridine peptides as a DNA vaccine adjuvant for use in combination with an intramuscular electroporation apparatus. […] The Man9-(Acr-Lys)6 (SEQ ID NO: 42) that we used for this study has the following structure of In certain embodiments the compound is Formula IVb: […]
The inventors obtained mouse data illustrating the electroporation apparatus expression of Man9-(Acr-Lys)6 (SEQ ID NO: 42) DNA (1 μg) at 0 and 0.012 nmoles of Man9-(Acr-Lys)6 (SEQ ID NO: 42) per μg of DNA (FIG. 32). The luciferase gene expression was equivalent at 0, 0.003 and 0.006 nmols of Man9 per μg of DNA, and then decreased at 0.0125 nmols of Man9 and higher. 0.0125 nmols of Man9-(Acr-Lys)6 (SEQ ID NO: 42) per μg of DNA corresponds 40 copies of Man9 per plasmid.

plasmid = test: DNA band shift assay of Man9-(Acr-Lys)6; type: binding
Text: as §1

liver = test: hydrodynamic stimulation and bioluminescence imaging of luciferase expression; type: in vivo, mice; conditions: 1 μg pGL3 dose, HD stimulation after 30 min, 24 hrs
Protocol: pGL3 (1 μg) was prepared in a volume of normal saline corresponding to 9 wt/vol % of the mouse's body weight (1.8-2.25 ml based on 20-25 g mice). The DNA dose was administered by tail vein to 4-5 mice in 5 sec according to a published procedure (Liu F, Song Y, Liu D. Hydrodynamics-based transfection in animals by systemic administration of plasmid DNA. Gene Ther 1999; 6: 1258-1266; Zhang G, Budker V, Wolff J A. High levels of foreign gene expression in hepatocytes after tail vein injections of naked plasmid DNA. Human Gene Therapy 1999; 10: 1735-1737). Mice (4-5) were also dosed tail vein with 1 μg of PEGylated polyacridine polyplex in 50 μl of HBM (5 mM Hepes, 0.27 M mannitol, pH 7.4). At times ranging from 5-120 min, a stimulatory hydrodynamic dose of normal saline (9 wt/vol % of the body weight) was administered over 5 sec. At 24 hrs post-DNA dose, mice were anesthetized by 3% isofluorane, then administered an i.p. dose of 80 μl (2.4 mg) of D-luciferin (30 μg/μl in phosphate-buffered saline). At 5 min following the D-luciferin dose, mice were imaged for bioluminescence (BLI) on an IVIS Imaging 200 Series (Xenogen). BLI was performed in a light-tight chamber on a temperature-controlled, adjustable stage while isofluorane was administered by a gas manifold at a flow rate of 3%. Images were acquired at a ‘medium’ binning level and a 20 cm field of view. Acquisition times were varied (1 sec^−1 min) depending on the intensity of the luminescence. The Xenogen system reported bioluminescence as photons/sec/cm^2/seradian in a 2.86 cm diameter region of interest covering the liver. The integration area was transformed to pmols of luciferase in the liver using a previously reported standard curve (Rettig G et al. Quantitative Bioluminscence Imaging of Transgene Expression In Vivo. Analytical Biochemistry 2006; 335: 90-94). The results were determined to be statistically significant (p≦0.05) based on a two-tailed unpaired t-test.

[2] = following i.v. dosing; Collard et al. 2000; cited from earlier work

Substance: Cys-(Acr-Lys)4: DNA binding polyacridine peptide with N-terminal Cys, prepared with Fmoc-Lys(Acr); SEQ ID NO: 23
- selectivity of gene transfer for CHO (+) or (−) cells [1]: did not demonstrate selectivity

Substance: Man9-(Acr-Lys)6: Iodoacetamide Man9 N-glycan reacted with Cys(Acr-Lys)6; Formula IVb (K(Acr)KK(Acr)KK(Acr)KK(Acr)KK(Acr)KK(Acr)K; not fully specified (N-terminus); also: Man9 N-glycan attached via iodoacetamide to a Cys not shown in chain)
- luciferase gene expression at 0, 0.003 and 0.006 nmols of Man9 per μg of DNA (Mice): equivalent
- luciferase gene expression at 0.0125 nmols of Man9 and higher (Mice): decreased
- copies bound to plasmid (plasmid): up to 40 copies

Substance: PEG-Cys-Trp-Lys18: PEGylated polylysine peptide control, SEQ ID NO: 34 (C(PEG)WKKKKKKKKKKKKKKKKKK; reading uncertain)
- stimulated luciferase expression of controls (liver): failed to produce measurable expression
- stimulated luciferase expression of controls (liver; listed as PEGylated-Cys-Trp-Lys18): no detectable luciferase expression
- complete metabolism of plasmid DNA in the circulation [2]: ≤ 3 min

From patent publication US20120035320A1, “POLYACRIDINE NUCLEIC ACID DELIVERY PEPTIDE COMPLEXES” (University of Iowa Research Foundation, priority 2010, published 2012)
